From patent US11261186B2, “Biaryl derivative as GPR120 agonist” (LG CHEM, LTD., priority 2014, dated 2022)

Biological target: T1, hGPR120 (Homo sapiens, UniProt Q5NUL3)
T1 construct: expressed in transfected cells; host or cells: CHO-K1
T1 sequence (Q5NUL3 1-361): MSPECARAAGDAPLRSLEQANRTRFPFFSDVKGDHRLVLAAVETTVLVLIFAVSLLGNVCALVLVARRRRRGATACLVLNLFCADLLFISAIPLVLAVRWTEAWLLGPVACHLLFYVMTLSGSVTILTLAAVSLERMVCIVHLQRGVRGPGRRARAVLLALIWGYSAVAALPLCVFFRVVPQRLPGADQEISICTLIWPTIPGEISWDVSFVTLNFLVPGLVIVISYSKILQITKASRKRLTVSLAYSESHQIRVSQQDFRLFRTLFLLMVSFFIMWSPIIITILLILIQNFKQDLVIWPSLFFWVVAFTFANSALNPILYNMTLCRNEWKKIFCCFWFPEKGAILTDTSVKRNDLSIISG
Test: Measurement of Activity of GPR120 Agonist (Cell-Based Assay), Calcium 5 dye fluorescence
Settings: CHO-K1 cells expressing Ga16 and hGPR120
Experimental: CHO-K1 cells expressing Ga16 and hGPR120 were dispensed into each well of a 96-well plate (3×10^4 cells/100 μl/well) and then incubated in 5% CO2, 37° C. incubator for 18 hours. Each well was treated with 100 μl of Calcium 5 dye (Molecular Devices) solution including 2% DMSO and then incubated in 5% CO2, 37° C. incubator for 1 hour. Serially diluted GPR120 agonists were prepared to a final concentration of 0.5% DMSO in a 96-well plate. Each well was treated with 50 μl of the agonist compounds using Plexstation II, and then fluorescence was measured at Ex 485 nm and Em 525 nm.
Fluorescence increased by the serially diluted GPR120 agonists is calculated as a relative percent (%) value based on the fluorescence represented by the treatment of 1% DMSO only. […] The calculation of measurement was carried out by using statistical software (Prizm).
Activity is denoted based on the following criteria: […]

EC50 [nM] | Structure (SMILES)
200 to 2000 | O=C(O)CCCOc1c(F)cc(-c2ccc(Cl)c(OCC3CC3)c2)cc1F [Example 534, 4-(4′-chloro-3′-cyclopropylmethoxy-3,5-difluoro-biphenyl-4-yloxy)-butyric acid]
200 to 2000 | COCCCOc1cccc(-c2cc(F)c(N3CCC(CC(=O)O)C3)c(F)c2)n1 (stereo not shown) [Example 595, (1-{2,6-difluoro-4-[6-(3-methoxy-propoxy)-pyridin-2-yl]-phenyl}-pyrrolidin-3-yl)-acetic acid]
< 200 | CCCOc1cc(C)nc(-c2cc(F)c(N3CCC(CC(=O)O)CC3)c(F)c2)n1 [Example 351, 2-[1-[2,6-difluoro-4-(4-methyl-6-propoxy-pyrimidin-2-yl)phenyl]-4-piperidyl]acetic acid]
< 200 | CCCSc1cccc(-c2cc(F)c(C(C)CCCC(=O)O)c(F)c2)n1 (stereo not shown) [Example 55, 5-[2,6-difluoro-4-(6-propylsulfanyl-2-pyridyl)phenyl]hexanoic acid]
< 200 | O=C(O)CC1CCN(c2c(F)cc(-c3nc(OCC4CC4)cs3)cc2F)CC1 [Example 377, {1-[4-(4-cyclopropylmethoxy-thiazol-2-yl)-2,6-difluoro-phenyl]-piperidin-4-yl}acetic acid]
< 200 | O=C(O)CCCOc1c(F)cc(-c2cccc(OCC3CCC3)n2)cc1F [Example 523, 4-[4-(6-cyclobutylmethoxy-pyridin-2-yl)-2,6-difluoro-phenoxy]-butyric acid]
< 200 | O=C(O)CCCOc1c(F)cc(-c2ccc(COCC3CC3)s2)cc1F [Example 565, 4-[4-(5-cyclopropylmethoxymethyl-thiophen-2-yl)-2,6-difluoro-phenoxy]-butanoic acid]
< 200 | CCOc1ccnc(-c2cc(F)c(N3CCC(CC(=O)O)C3)c(F)c2)n1 (stereo not shown) [Example 501, 2-{1-[2,6-difluoro-4-(4-ethoxy-pyrimidin-2-yl)phenyl]pyrrolidin-3-yl}acetic acid]
2000 to 20000 | COc1ccc(-c2cc(F)c(N3CC(CC(=O)O)C3)c(F)c2)c2c1OC(C)(C)C2 [Example 285, {1-[2,6-difluoro-4-(7-methoxy-2,2-dimethyl-2,3-dihydro-benzofuran-4-yl)-phenyl]-azetidin-3-yl}-acetic acid]
< 200 | O=C(O)CCCCc1ccc(-c2cccnc2SC2CCCC2)cc1 [Example 29, 5-[4-(2-cyclopentylsulfanyl-3-pyridyl)phenyl]pentanoic acid]
200 to 2000 | CCc1ccc(Oc2ccnc(-c3cc(F)c(N4CCC(CC(=O)O)CC4)c(F)c3)n2)cc1 [Example 606, 2-[1-[2,6-difluoro-4-[6-(4-ethylphenoxy)pyrimidin-2-yl]phenyl]-4-piperidyl]acetic acid]
200 to 2000 | O=C(O)CCC1CCc2cc(-c3cccnc3OC3CCOCC3)ccc2S1 (stereo not shown) [Example 284, 3-{6-[2-(tetrahydro-pyran-4-yloxy)-pyridin-3-yl]-thiochroman-2-yl}-propionic acid]
200 to 2000 | Cc1cc(Oc2ccc(F)cc2)nc(-c2cc(F)c(N3CCC(CC(=O)O)CC3)c(F)c2)n1 [Example 515, 2-[1-[2,6-difluoro-4-[4-(4-fluorophenoxy)-6-methyl-pyrimidin-2-yl]phenyl]-4-piperidyl]acetic acid]
200 to 2000 | O=C(O)CCC1CCN(c2c(F)cc(-c3cccc(C4CCC4)n3)cc2F)CC1 [Example 621, 3-{1-[4-(6-cyclobutyl-pyridin-2-yl)-2,6-difluoro-phenyl]-piperidin-4-yl}-propionic acid]
< 200 | CN(CCCC(=O)O)c1c(F)cc(-c2cccc(OCC3CC3)c2)cc1F [Example 524, 4-[(3′-cyclopropylmethoxy-3,5-difluoro-biphenyl-4-yl)-methyl-amino]-butyric acid]
< 200 | CC(C)Oc1ncccc1-c1ccc2cc(CCC(=O)O)ccc2c1 [Example 149, 3-[6-(2-isopropoxy-pyridin-3-yl)-naphthalen-2-yl]-propanoic acid]

EC50 [nM] | Structure (SMILES)
< 200 | O=C(O)CCc1ccc2cc(-c3cccnc3Oc3ccccc3)ccc2c1 [Example 144, 3-[6-(2-phenoxy-pyridin-3-yl)-naphthalen-2-yl]-propanoic acid]
200 to 2000 | O=C(O)C1CC1COc1c(F)cc(-c2cccc(OCC3CC3)n2)cc1Cl (stereo not shown) [Example 552, 2-[2-chloro-4-(6-cyclopropylmethoxy-pyridin-2-yl)-6-fluoro-phenoxymethyl]-cyclopropanecarboxylic acid]
2000 to 20000 | O=C(O)COc1ccc2cc(-c3cccnc3OC3CCCC3)ccc2c1 [Example 4, [6-(2-cyclopentyloxy-pyridin-3-yl)-naphthalen-2-yloxy]-acetic acid]
200 to 2000 | O=C(O)CCCOc1c(F)cc(-c2cccc(S(=O)(=O)C3CCC3)c2)cc1F [Example 416, 4-(3′-cyclobutanesulfonyl-3,5-difluoro-biphenyl-4-yloxy)-butyric acid]
200 to 2000 | O=C(O)CC1CCN(c2c(F)cc(-c3nccc(Oc4cccc(C(F)(F)F)c4)n3)cc2F)CC1 [Example 611, 2-[1-[2,6-difluoro-4-[4-[3-(trifluoromethyl)phenoxy]pyrimidin-2-yl]phenyl]-4-piperidyl]acetic acid]
< 200 | CC(C)n1ccc2ccc(-c3cc(F)c(OCCCC(=O)O)c(F)c3)cc21 [Example 558, 4-[2,6-difluoro-4-(1-isopropyl-1H-indol-6-yl)-phenoxy]-butanoic acid]
< 200 | CC1(C)Cc2c(cccc2-c2ccc(OCCCC(=O)O)cc2)O1 [Example 193, 4-[4-(2,2-dimethyl-2,3-dihydro-benzofuran-4-yl)-phenoxy]-butyric acid]
2000 to 20000 | O=C(O)CC1CCN(c2c(F)cc(-c3cncc(N4CCCC4)n3)cc2F)CC1 [Example 353, 2-[1-[2,6-difluoro-4-(6-pyrrolidin-1-ylpyrazin-2-yl)phenyl]-4-piperidyl]acetic acid]
2000 to 20000 | O=C(O)CC1CCN(c2c(F)cc(-c3cccc4sc(-c5ccc(F)cc5)cc34)cc2F)CC1 [Example 615, (1-{2,6-difluoro-4-[2-(4-fluoro-phenyl)-benzo[b]thiophen-4-yl]-phenyl}-piperidin-4-yl)-acetic acid]
200 to 2000 | O=C(O)CCCC1(c2c(F)cc(-c3cccnc3SC3CCC3)cc2F)CC1 [Example 167, 4-{1-[4-(2-cyclobutylsulfanyl-pyridin-3-yl)-2,6-difluoro-phenyl]-cyclopropyl}-butyric acid]
< 200 | CN(CCCC(=O)O)c1c(F)cc(-c2nccc(OCC3CC3)n2)cc1F [Example 490, 4-[4-[4-(cyclopropylmethoxy)pyrimidin-2-yl]-2,6-difluoro-N-methyl-anilino]butanoic acid]
< 200 | C[C@H](CCCC(=O)O)c1c(F)cc(-c2cccnc2SC2CCC2)cc1F [Example 227, (R)-5-[4-(2-cyclobutylsulfanyl-pyridin-3-yl)-2,6-difluoro-phenyl]-hexanoic acid]
< 200 | CC(C)N(C)c1ccccc1-c1cc(F)c(N(C)CCCC(=O)O)c(F)c1 [Example 223, 4-{[3,5-difluoro-2′-(isopropyl-methyl-amino)-biphenyl-4-yl]-methyl-amino}-butyric acid]
< 200 | O=C(O)CCCOc1c(F)cc(-c2csc(OCC3CC3)n2)cc1F [Example 397, 4-[4-[2-(cyclopropylmethoxy)thiazol-4-yl]-2,6-difluoro-phenoxy]butanoic acid]
< 200 | O=C(O)CCCOc1c(F)cc(-c2nccc(OCC3CC3)n2)cc1Cl [Example 428, 4-[2-chloro-4-(4-cyclopropylmethoxy-pyrimidin-2-yl)-6-fluoro-phenoxy]-butyric acid]

Structure (SMILES) | EC50 [nM]
Cc1cc(OC2CCC2)nc(-c2cc(F)c(N3CCC(CC(=O)O)CC3)c(F)c2)c1 [Example 327, 2-[1-[4-[6-(cyclobutoxy)-4-methyl-2-pyridyl]-2,6-difluoro-phenyl]-4-piperidyl]acetic acid] | 200 to 2000
O=C(O)C1CC1COc1c(F)cc(-c2nccc(OC3CCC3)n2)cc1F (stereo not shown) [Example 543, 2-[4-(4-cyclobutoxy-pyrimidin-2-yl)-2,6-difluoro-phenoxymethyl]-cyclopropanecarboxylic acid] | < 200
CC(CCCC(=O)O)c1c(F)cc(-c2ccc(Cl)c(OC3CCC3)n2)cc1F (stereo not shown) [Example 415, 5-[4-(5-chloro-6-cyclobutoxy-pyridin-2-yl)-2,6-difluoro-phenyl]-hexanoic acid] | < 200
O=C(O)CC1CCN(c2c(F)cc(-c3nccc(OC4CCC4)n3)cc2F)CC1 [Example 330, 2-[1-[4-[4-(cyclobutoxy)pyrimidin-2-yl]-2,6-difluoro-phenyl]-4-piperidyl]acetic acid] | < 200
O=C(O)CCCOc1c(F)cc(-c2cc(OC3CCC3)cc(Cl)n2)cc1Cl [Example 424, 4-[2-chloro-4-(6-chloro-4-cyclobutoxy-pyridin-2-yl)-6-fluoro-phenoxy]-butyric acid] | < 200
CC(C)(C)Oc1cccc(-c2cc(F)c(N3CCC(CC(=O)O)CC3)c(F)c2)n1 [Example 309, 2-[1-[4-(6-tert-butoxy-2-pyridyl)-2,6-difluoro-phenyl]-4-piperidyl]acetic acid] | 200 to 2000
